“Also recorded” adds a separate entry of the source. Read-outs that look alike come from different tables or passages of the source.
Key:
[1] = logP reported in literature; cited from earlier work
glucocorticoid receptor [2] = target: T1, glucocorticoid receptor (Homo sapiens, UniProt P04150); settings: relative to dexamethasone = 100; average of all values if multiple available; cited from earlier work
T1 sequence (P04150 1-777): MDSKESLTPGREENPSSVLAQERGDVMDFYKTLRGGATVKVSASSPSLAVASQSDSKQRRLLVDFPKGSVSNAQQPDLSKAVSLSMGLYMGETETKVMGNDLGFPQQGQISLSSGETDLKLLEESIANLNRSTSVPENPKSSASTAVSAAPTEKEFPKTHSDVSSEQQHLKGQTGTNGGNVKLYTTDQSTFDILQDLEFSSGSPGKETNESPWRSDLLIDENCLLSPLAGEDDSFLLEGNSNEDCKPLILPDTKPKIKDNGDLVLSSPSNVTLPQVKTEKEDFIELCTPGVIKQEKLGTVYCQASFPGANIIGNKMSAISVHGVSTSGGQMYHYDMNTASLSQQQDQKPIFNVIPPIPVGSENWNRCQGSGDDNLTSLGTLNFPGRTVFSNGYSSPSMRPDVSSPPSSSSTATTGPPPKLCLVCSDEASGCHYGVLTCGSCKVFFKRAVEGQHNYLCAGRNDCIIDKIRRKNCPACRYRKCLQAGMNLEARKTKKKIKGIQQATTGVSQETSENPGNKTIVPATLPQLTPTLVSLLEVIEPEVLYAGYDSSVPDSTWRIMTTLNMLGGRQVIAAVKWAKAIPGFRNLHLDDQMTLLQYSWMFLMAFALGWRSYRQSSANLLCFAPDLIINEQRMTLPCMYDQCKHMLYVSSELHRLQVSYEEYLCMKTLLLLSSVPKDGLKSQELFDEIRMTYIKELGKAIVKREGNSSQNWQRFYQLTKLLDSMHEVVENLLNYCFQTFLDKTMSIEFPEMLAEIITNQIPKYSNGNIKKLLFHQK

[3] = target: T2, Corticosteroid Binding Globulin (CBG), transcortin (Homo sapiens, UniProt P08185); settings: cited from earlier work; for Class: CBG binding activity class
T2 sequence (P08185 23-405): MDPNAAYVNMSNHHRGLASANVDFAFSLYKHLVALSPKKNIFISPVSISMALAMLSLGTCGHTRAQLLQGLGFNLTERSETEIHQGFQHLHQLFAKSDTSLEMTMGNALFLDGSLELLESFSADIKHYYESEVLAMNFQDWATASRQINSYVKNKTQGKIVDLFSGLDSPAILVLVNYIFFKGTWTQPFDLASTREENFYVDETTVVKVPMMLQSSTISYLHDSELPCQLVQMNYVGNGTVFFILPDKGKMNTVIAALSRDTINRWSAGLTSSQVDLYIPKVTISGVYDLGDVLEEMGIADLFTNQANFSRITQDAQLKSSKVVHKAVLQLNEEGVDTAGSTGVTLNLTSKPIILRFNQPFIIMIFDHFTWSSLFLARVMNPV

glucocorticoid receptor [4] = target: T1, glucocorticoid receptor; experiment: Relative binding affinity for the glucocorticoid receptor (GCR/GR); settings: GRs were calculated from RBAs; read-out: GR Est. IC50
transcortin (CBG) = target: T3, transcortin (CBG) (Homo sapiens, UniProt P08185); experiment: Binding of corticosteroids to transcortin: 3H-cortisol competition in charcoal-treated diluted plasma
T3 construct: from tissue; host or cells: plasma from venous blood of healthy volunteers, charcoal-treated, diluted 100-fold
T3 sequence (P08185 23-405): T2 sequence (P08185 23-405)
Experimental: Experimental procedure: Venous blood was collected from healthy volunteers into heparin-containing tubes (5 Us/100 ml serum) and cells were separated from plasma by centrifugation (1500 g for 15 min). […] Charcoal-treated plasma was diluted 100-fold with binding buffer (10 mM Tris-HCl; 2 mM DTT (dithiotreitol); 1.5 mM EDTA; 0.02 M Na2MoO4; 10% Glycerol; pH 7.4) and was stored aliquoted at −80° C. […] The assay ingredients were mixed and the tubes were incubated for 1 hour on ice. At the end of the incubation, 0.2 ml of charcoal suspension (0.5% Norit A and 0.05% BSA) was added to each tube. The tubes were briefly agitated and incubated for an additional 10 min at 0° C. They were then centrifuged for 10 min at 15 000 g, and the same aliquots from the clear supernatants were quantitatively decanted into counting vials and combined with 3 ml of toluene-based scintillation fluid. […] Specific binding and IC50-values were calculated.

[5] = system: forearms of human volunteers; experiment: Human vasoconstriction (blanching) testing; assay type: in vivo; parameters: key to Vasoconstriction activity (total score of 4 tests): sum of 4 tests, each 0 = normal skin to 4 = very intense pallor
Experimental: Solutions of LE, HC and PRN (0.1 or 1 mM) alone, or mixtures of LE and HC (0.1+0.1 mM, or 1+1 mM), or LE and PRN (0.1+0.1 mM, or 1+1 mM) were prepared with a vehicle containing absolute ethanol and propylene glycol (9:1). […] After evaporation of ethanol (20 min), the films were applied to the forearms of human volunteers for 4 hours. Subsequently, the vasoconstriction reaction was read and judged by the appearance of pallor at various time intervals after the removal of the discs and films. The grading scale was as follows: 0, normal skin; 1, slight pallor; 2, pallor with at least two corners outlined; 3, even pallor with a clear outlined of the application sites; 4, very intense pallor. Due to the relatively high variations in response between the volunteers, a total score of 4 tests at each time point was taken for the activity evaluation.

[6] = 3 nM 3H-cortisol, 1 hour on ice, plasma diluted 100-fold, read-out: IC50-values (nM) average ± SEM (n)
[7] = estimated, unpublished results Bodor, Kurucz 2006, read-out: CBG Est. IC50

In the case of `C[C@H]1C[C@H]2[C@@H]3CCC4=CC(=O)C=C[C@]4(C)[C@@]3(F)[C@@H](O)C[C@]2(C)[C@@]1(O)C(=O)CO` [Betamethasone], the logP [1] is listed as 1.94.

In the case of `CCCC1O[C@@H]2C[C@H]3[C@@H]4CCC5=CC(=O)C=C[C@]5(C)[C@H]4[C@@H](O)C[C@]3(C)[C@]2(C(=O)CO)O1` (stereo partly shown) [Budesonide, 22R, Budesonide], the logP [1] is given as 3.24.

For `CCC(=O)O[C@]1(C(=O)CCl)[C@@H](C)C[C@H]2[C@@H]3CCC4=CC(=O)C=C[C@]4(C)[C@@]3(F)[C@@H](O)C[C@@]21C` [Clobetasol propionate], the logP [1] is given as 3.83 and the “rBA (relative receptor binding affinity)” value (glucocorticoid receptor [2]) is given as 6300.

In the case of `C[C@]12C[C@H](O)[C@H]3[C@@H](CCC4=CC(=O)CC[C@@]43C)[C@@H]1CC[C@@H]2C(=O)CO` [Corticosterone], the logP [1] is given as 1.94, the “rBA (relative receptor binding affinity)” value (glucocorticoid receptor [2]) is given as 35 and the Class [3] is given as 1. For the same molecule, the “Log 1/K” value ([3]; CBG binding affinity, literature data) was −7.881.

With `C[C@]12CCC(=O)C=C1CCC1C2[C@@H](O)C[C@@]2(C)C1CC[C@]2(O)C(=O)O` (stereo partly drawn) [Cortienic acid (CA) GYKI-24805, 11β,17α-dihydroxyandrost-4-en-3-one-17β-carboxylic acid] the IC50 (glucocorticoid receptor [4]) was > 1000 nM, the IC50 (transcortin (CBG); [6]) was 117 ± 49 nM and the IC50 (transcortin (CBG); [7]) was 120 nM.

In the case of `CCOC(=O)[C@@]1(OC(=O)C(Cl)Cl)CC[C@H]2[C@@H]3CCC4=CC(=O)C=C[C@]4(C)[C@H]3[C@@H](O)C[C@@]21C` [Etiprednol dicloacetate (BNP-166), Etiprednol dicloacetate], the IC50 (transcortin (CBG); [6]) is given as 4500 ± 973 nM and the “rBA (relative receptor binding affinity)” value (glucocorticoid receptor [2]) is given as 200.

In the case of `CC1(C)O[C@@H]2C[C@H]3[C@@H]4C[C@H](F)C5=CC(=O)C=C[C@]5(C)[C@H]4[C@@H](O)C[C@]3(C)[C@]2(C(=O)CO)O1` [Flunisolide], the logP [1] is listed as 2.28 and the “rBA (relative receptor binding affinity)” value (glucocorticoid receptor [2]) is listed as 165.

For `CCC(=O)O[C@]1(C(=O)SCF)[C@H](C)C[C@H]2[C@@H]3C[C@H](F)C4=CC(=O)C=C[C@]4(C)[C@@]3(F)[C@@H](O)C[C@@]21C` [Fluticasone propionate], the logP [1] is given as 4.20 and the IC50 (transcortin (CBG); [7]) is given as > 10000 nM.

For `CC(=O)O[C@]1(C(=O)CO)CC[C@H]2[C@@H]3CCC4=CC(=O)CC[C@]4(C)[C@H]3[C@@H](O)C[C@@]21C` [Hydrocortisone 17-acetate], the “rBA (relative receptor binding affinity)” value (glucocorticoid receptor [2]) is given as 41.

In the case of `CCCC(=O)O[C@]1(C(=O)CO)CC[C@H]2[C@@H]3CCC4=CC(=O)CC[C@]4(C)[C@H]3[C@@H](O)C[C@@]21C` [Hydrocortisone 17-butyrate], the “rBA (relative receptor binding affinity)” value (glucocorticoid receptor [2]) is given as 95.

For `CCC(=O)O[C@]1(C(=O)CO)CC[C@H]2[C@@H]3CCC4=CC(=O)CC[C@]4(C)[C@H]3[C@@H](O)C[C@@]21C` [Hydrocortisone 17-propionate], the logP [1] is given as 2.70 and the “rBA (relative receptor binding affinity)” value (glucocorticoid receptor [2]) is given as 79.

For `C[C@]12CCC(=O)C=C1CCC1C2[C@@H](O)C[C@@]2(C)C1CC[C@]2(O)C(=O)CO` (stereo partly shown) [Hydrocortisone (cortisol), hydrocortisone], the “Vasoconstriction activity (total score of 4 tests)” value ([5]; 0.1 mM, 2 hr after removal, 4 h application) was 0, the “Vasoconstriction activity (total score of 4 tests)” value ([5]; 0.1 mM, 4 hr after removal) was 0 and the “Vasoconstriction activity (total score of 4 tests)” value ([5]; 0.1 mM, 6 hr after removal) was 0. For the same molecule, the “Vasoconstriction activity (total score of 4 tests)” value ([5]; 0.1 mM, 8 hr after removal) was 0, the “Vasoconstriction activity (total score of 4 tests)” value ([5]; 0.1 mM, 10 hr after removal) was 0 and the “Vasoconstriction activity (total score of 4 tests)” value ([5]; 0.1 mM, 16 hr after removal) was 0. For the same molecule, the “Vasoconstriction activity (total score of 4 tests)” value ([5]; 0.1 mM, 18 hr after removal) was 0, the “Vasoconstriction activity (total score of 4 tests)” value ([5]; 0.1 mM, 24 hr after removal) was 0 and the “Vasoconstriction activity (total score of 4 tests)” value ([5]; 1 mM, 2 hr after removal, 4 h application) was 0. The “Vasoconstriction activity (total score of 4 tests)” value ([5]; 1 mM, 4 hr after removal) was 0, the “Vasoconstriction activity (total score of 4 tests)” value ([5]; 1 mM, 6 hr after removal) was 0 and the “Vasoconstriction activity (total score of 4 tests)” value ([5]; 1 mM, 8 hr after removal) was 0. For the same molecule, the “Vasoconstriction activity (total score of 4 tests)” value ([5]; 1 mM, 10 hr after removal) was 0, the “Vasoconstriction activity (total score of 4 tests)” value ([5]; 1 mM, 16 hr after removal) was 0 and the “Vasoconstriction activity (total score of 4 tests)” value ([5]; 1 mM, 18 hr after removal) was 0. For the same molecule, the “Vasoconstriction activity (total score of 4 tests)” value ([5]; 1 mM, 24 hr after removal) was 0, the “Vasoconstriction activity alone (in words)” value ([5]; by itself, concentration range 0.1 to 1 mM, human skin, listed as HC) was “do not yield any detectable activity; also recorded: no activity” and the logP [1] was 1.61. The IC50 (transcortin (CBG); [6]) was 69 ± 8 nM, the IC50 (transcortin (CBG); [7]) was 70 nM and the Class [3] was 1.

For `C[C@@H]1C[C@H]2[C@@H]3CCC4=CC(=O)C=C[C@]4(C)[C@@]3(Cl)[C@@H](O)C[C@]2(C)[C@@]1(O)C(=O)CCl` [Mometasone], the “rBA (relative receptor binding affinity)” value (glucocorticoid receptor [2]) is given as 88.

With `C[C@]12C=CC(=O)C=C1CCC1C2[C@@H](O)C[C@@]2(C)C1CC[C@]2(O)C(=O)O` (stereo partly shown) [Δ1-CA GYKI-24762, Δ^1-cortienic acid] the IC50 (glucocorticoid receptor [4]) was > 1000 nM, the IC50 (transcortin (CBG); [6]) was 52 ± 10 nM and the IC50 (transcortin (CBG); [7]) was 50 nM.

For `COC(=O)[C@@]1(O)CCC2C3CCC4=CC(=O)C=C[C@]4(C)C3[C@@H](O)C[C@@]21C` (stereo partly shown) [Δ1-CA-Me GYKI-24776, Δ^1-CA, methyl ester], the IC50 (glucocorticoid receptor [4]) was > 1000 nM, the IC50 (transcortin (CBG); [6]) was 31 ± 11 nM and the IC50 (transcortin (CBG); [7]) was 30 nM.
